Active and inactive are the calls of the source. No cut-off for these calls is given here.
Columns and labels:
HT-29 = assay: Growth inhibition of human HT-29 cells after 48 hrs by SRB assay; format: functional; conditions: HT-29, 48 h
CCRF-CEM = assay: Growth inhibition of human CCRF-CEM cells after 48 hrs by SRB assay; format: functional
HL-60(TB) = assay: Growth inhibition of human HL-60(TB) cells after 48 hrs by SRB assay; format: functional; conditions: HL-60, 48 h
K562 [1] = assay: Growth inhibition of human K562 cells after 48 hrs by SRB assay; format: functional; conditions: K562, 48 h
MOLT-4 = assay: Growth inhibition of human MOLT4 cells after 48 hrs by SRB assay; format: functional; conditions: MOLT-4, 48 h
RPMI-8226 = assay: Growth inhibition of human RPMI8226 cells after 48 hrs by SRB assay; format: functional; conditions: RPMI-8226, 48 h
SR = assay: Growth inhibition of human SR cells after 48 hrs by SRB assay; format: functional
A549 = assay: Growth inhibition of human A549 cells after 48 hrs by SRB assay; format: functional; conditions: A549, 48 h
EKVX = assay: Growth inhibition of human EKVX cells after 48 hrs by SRB assay; format: functional
HOP-62 = assay: Growth inhibition of human HOP62 cells after 48 hrs by SRB assay; format: functional; conditions: HOP-62, 48 h
HOP-92 = assay: Growth inhibition of human HOP92 cells after 48 hrs by SRB assay; format: functional; conditions: HOP-92, 48 h
NCI-H226 = assay: Growth inhibition of human NCI-H226 cells after 48 hrs by SRB assay; format: functional; conditions: NCI-H226, 48 h
NCI-H23 = assay: Growth inhibition of human NCI-H23 cells after 48 hrs by SRB assay; format: functional; conditions: NCI-H23, 48 h
NCI-H322M = assay: Growth inhibition of human NCI-H322M cells after 48 hrs by SRB assay; format: functional
NCI-H460 = assay: Growth inhibition of human NCI-H460 cells after 48 hrs by SRB assay; format: functional; conditions: NCI-H460, 48 h
NCI-H522 = assay: Growth inhibition of human NCI-H522 cells after 48 hrs by SRB assay; format: functional; conditions: NCI-H522, 48 h
COLO 205 = assay: Growth inhibition of human COLO205 cells after 48 hrs by SRB assay; format: functional; conditions: COLO 205, 48 h
HCC 2998 = assay: Growth inhibition of human HCC2998 cells after 48 hrs by SRB assay; format: functional; conditions: HCC 2998, 48 h
HCT-116 = assay: Growth inhibition of human HCT116 cells after 48 hrs by SRB assay; format: functional; conditions: HCT-116, 48 h
HCT-15 = assay: Growth inhibition of human HCT15 cells after 48 hrs by SRB assay; format: functional; conditions: HCT-15, 48 h
LOX IMVI = assay: Growth inhibition of human LOXIMVI cells after 48 hrs by SRB assay; format: functional
Malme-3M = assay: Growth inhibition of human MALME-3M cells after 48 hrs by SRB assay; format: functional
M14 = assay: Growth inhibition of human M14 cells after 48 hrs by SRB assay; format: functional; conditions: M14, 48 h
SK-MEL-28 = assay: Growth inhibition of human SK-MEL-28 cells after 48 hrs by SRB assay; format: functional; conditions: SK-MEL-28, 48 h
SK-MEL-5 = assay: Growth inhibition of human SK-MEL-5 cells after 48 hrs by SRB assay; format: functional; conditions: SK-MEL-5, 48 h
UACC-257 = assay: Growth inhibition of human UACC257 cells after 48 hrs by SRB assay; format: functional; conditions: UACC-257, 48 h
UACC-62 = assay: Growth inhibition of human UACC62 cells after 48 hrs by SRB assay; format: functional; conditions: UACC-62, 48 h
IGROV-1 = assay: Growth inhibition of human IGROV1 cells after 48 hrs by SRB assay; format: functional; conditions: IGROV-1, 48 h
OVCAR-3 = assay: Growth inhibition of human OVCAR-3 cells after 48 hrs by SRB assay; format: functional; conditions: OVCAR-3, 48 h
OVCAR-4 = assay: Growth inhibition of human OVCAR4 cells after 48 hrs by SRB assay; format: functional; conditions: OVCAR-4, 48 h
OVCAR-5 = assay: Growth inhibition of human OVCAR5 cells after 48 hrs by SRB assay; format: functional; conditions: OVCAR-5, 48 h
OVCAR-8 = assay: Growth inhibition of human OVCAR8 cells after 48 hrs by SRB assay; format: functional; conditions: OVCAR-8, 48 h
SK-OV-3 = assay: Growth inhibition of human SKOV3 cells after 48 hrs by SRB assay; format: functional; conditions: SK-OV-3, 48 h
786-0 = assay: Growth inhibition of human 786-0 cells after 48 hrs by SRB assay; format: functional; conditions: 786-0, 48 h
A498 = assay: Growth inhibition of human A498 cells after 48 hrs by SRB assay; format: functional; conditions: A498, 48 h
ACHN = assay: Growth inhibition of human ACHN cells after 48 hrs by SRB assay; format: functional
CAKI-1 = assay: Growth inhibition of human Caki1 cells after 48 hrs by SRB assay; format: functional; conditions: CAKI-1, 48 h
RXF 393 = assay: Growth inhibition of human […] cells after 48 hrs by SRB assay; format: functional; conditions: RXF 393, 48 h
SN12C = assay: Growth inhibition of human SN12C cells after 48 hrs by SRB assay; format: functional
TK-10 = assay: Growth inhibition of human TK10 cells after 48 hrs by SRB assay; format: functional; conditions: TK-10, 48 h
UO-31 = assay: Growth inhibition of human UO31 cells after 48 hrs by SRB assay; format: functional; conditions: UO-31, 48 h
PC-3 = assay: Growth inhibition of human PC3 cells after 48 hrs by SRB assay; format: functional; conditions: PC-3, 48 h
DU-145 = assay: Growth inhibition of human DU145 cells after 48 hrs by SRB assay; format: functional; conditions: DU-145, 48 h
MCF7 = assay: Growth inhibition of human MCF7 cells after 48 hrs by SRB assay; format: functional; conditions: MCF7, 48 h
NCI/ADR-RES = assay: Growth inhibition of human NCI/ADR-RES cells after 48 hrs by SRB assay; format: functional
MDA-MB-231 = assay: Growth inhibition of human MDA-MB-231 cells after 48 hrs by SRB assay; format: functional; conditions: MDA-MB-231, 48 h
[2] = Growth inhibition of human Hs 578T cells after 48 hrs by SRB assay; format: functional
MDA-MB-435 = assay: Growth inhibition of human MDA-MB-435 cells after 48 hrs by SRB assay; format: functional; conditions: MDA-MB-435, 48 h
BT-549 = assay: Growth inhibition of human BT549 cells after 48 hrs by SRB assay; format: functional; conditions: BT-549, 48 h
T47D = assay: Growth inhibition of human T47D cells after 48 hrs by SRB assay; format: functional
K562 [3] = assay: Cell cycle arrest in human K562 cells assessed as accumulation at S phase at 180 uM after 24 hrs using propidium iodide staining by flow cytometry; format: functional, cell-based
K562 [4] = assay: Cell cycle arrest in human K562 cells assessed as accumulation at G2/M phase at 180 uM after 24 hrs using propidium iodide staining by flow cytometry; format: functional, cell-based
KM12 = assay: Growth inhibition of human KM12 cells after 48 hrs by SRB assay; format: functional; conditions: KM12, 48 h
SW-620 = assay: Growth inhibition of human SW620 cells after 48 hrs by SRB assay; format: functional; conditions: SW-620, 48 h
SF-268 = assay: Growth inhibition of human SF268 cells after 48 hrs by SRB assay; format: functional; conditions: SF-268, 48 h
SF-295 = assay: Growth inhibition of human SF295 cells after 48 hrs by SRB assay; format: functional; conditions: SF-295, 48 h
SF-539 = assay: Growth inhibition of human SF539 cells after 48 hrs by SRB assay; format: functional; conditions: SF-539, 48 h
SNB-19 = assay: Growth inhibition of human SNB19 cells after 48 hrs by SRB assay; format: functional; conditions: SNB-19, 48 h
SNB-75 = assay: Growth inhibition of human SNB75 cells after 48 hrs by SRB assay; format: functional; conditions: SNB-75, 48 h
U-251 = assay: Growth inhibition of human U251 cells after 48 hrs by SRB assay; format: functional; conditions: U-251, 48 h

COc1ccccc1NC(=O)n1nc(N)c2ccccc21
GI50 (HT-29): > 100 µM
GI50 (CCRF-CEM): > 100 µM
GI50 (HL-60(TB)): 47.2 µM
GI50 (K562 [1]): > 100 µM
GI50 (MOLT-4): 54 µM
GI50 (RPMI-8226): 86 µM
GI50 (SR): 92.5 µM
GI50 (A549): > 100 µM
GI50 (EKVX): 44.8 µM
GI50 (HOP-62): 100 µM
GI50 (HOP-92): 30.2 µM
GI50 (NCI-H226): > 100 µM
GI50 (NCI-H23): > 100 µM
GI50 (NCI-H322M): > 100 µM
GI50 (NCI-H460): 78.9 µM
GI50 (NCI-H522): 49.5 µM
GI50 (COLO 205): > 100 µM
GI50 (HCC 2998): 66.2 µM
GI50 (HCT-116): > 100 µM
GI50 (HCT-15): 73.6 µM
GI50 (LOX IMVI): 92.1 µM
GI50 (Malme-3M): > 100 µM
GI50 (M14): > 100 µM
GI50 (SK-MEL-28): > 100 µM
GI50 (SK-MEL-5): > 100 µM
GI50 (UACC-257): > 100 µM
GI50 (UACC-62): > 100 µM
GI50 (IGROV-1): 27.3 µM
GI50 (OVCAR-3): > 100 µM
GI50 (OVCAR-4): > 100 µM
GI50 (OVCAR-5): > 100 µM
GI50 (OVCAR-8): > 100 µM
GI50 (SK-OV-3): > 100 µM
GI50 (786-0): > 100 µM
GI50 (A498): > 100 µM
GI50 (ACHN): > 100 µM
GI50 (CAKI-1): > 100 µM
GI50 (RXF 393): 45.7 µM
GI50 (SN12C): > 100 µM
GI50 (TK-10): 74.3 µM
GI50 (UO-31): > 100 µM
GI50 (PC-3): 83.1 µM
GI50 (DU-145): > 100 µM
GI50 (MCF7): 0.269 µM
TGI (MCF7): 64.6 µM
CC50 (MCF7; read-out: LC50 (the source's name)): > 100 µM
GI50 (NCI/ADR-RES): 90.7 µM
GI50 (MDA-MB-231): 46.1 µM
GI50 [2]: 33.8 µM
GI50 (MDA-MB-435): > 100 µM
GI50 (BT-549): 28 µM
GI50 (T47D): > 100 µM
Activity (K562 [3]): Active
Activity (K562 [4]): Active
GI50 (KM12): 39.1 µM
GI50 (SW-620): > 100 µM
GI50 (SF-268): > 100 µM
GI50 (SF-295): 56.6 µM
GI50 (SF-539): 60.9 µM
GI50 (SNB-19): > 100 µM
GI50 (SNB-75): 37 µM
GI50 (U-251): 98.7 µM

From ChEMBL document CHEMBL1152860, “Synthesis and antiproliferative activity of 3-amino-N-phenyl-1H-indazole-1-carboxamides” (2009)
